The values below are quoted from earlier work in patent publication US20070065513A1, “Stable lansoprazole formulation” (priority 2003, published 2007).

Like-named read-outs stand apart in the source and are kept apart here.

Turning to `COc1ccc2[nH]c([S+]([O-])Cc3ncc(C)c(OC)c3C)nc2c1` (stereo not drawn) [Omeprazole, 5methoxy-2(((4-methoxy-3,5-dimethyl-2-pyridinyl)methyl)sulfinyl)-1H-benzimidazole], the half life (pH 6.5) is 18 h and the half life result (pH 11) is reported as “about 300 days”. Also, the half-life of degradation result (pH values below 4.0) is given as “less than 10 minutes”.
